From PMC11747885, “Potent inhibitors of the human RNA ligase Rlig1 highlights its role in RNA integrity maintenance under oxidative cellular stress” (Chemical Science, 2025)

Target: T1, Rlig1-AMP (Homo sapiens, UniProt Q8N999)
T1 construct: made in house; host or cells: E. coli BL21 (DE3), pET15b-Rlig1
Assay: FRET-based high-throughput screening of inhibitors for Rlig1-AMP
Assay type: biochemical
Conditions: for Raw data [w Enyzm]: with enzyme; for Raw data [w/o Enzym]: without enzyme

[1] = sheet HTS hits, MedChemExpress library
[2] = sheet HTS hits, difference of raw data w/o and w enzyme
[3] = HTS hits, difference of raw data w/o and w enzyme
[4] = HTS hits, normalised value of 1-D Distance
[5] = HTS hits, MedChemExpress library
[6] = HTS hits, difference of raw data without and with enzyme
[7] = HTS hits, normalized value (npi)

T1 sequence (Q8N999 whole entry): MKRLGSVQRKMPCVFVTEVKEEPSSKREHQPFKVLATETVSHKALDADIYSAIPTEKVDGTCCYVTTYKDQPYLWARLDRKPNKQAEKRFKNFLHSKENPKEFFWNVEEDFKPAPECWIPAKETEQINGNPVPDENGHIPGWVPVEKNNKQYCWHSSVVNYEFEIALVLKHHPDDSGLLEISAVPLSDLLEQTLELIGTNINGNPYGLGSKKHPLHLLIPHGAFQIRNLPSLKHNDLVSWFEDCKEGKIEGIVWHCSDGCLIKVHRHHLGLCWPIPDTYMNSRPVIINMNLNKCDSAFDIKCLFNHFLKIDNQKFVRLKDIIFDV

COc1cccc2c1C(=N)c1c(O)c3c(c(O)c1C2=O)C[C@@](O)(C(C)=O)C[C@@H]3O[C@H]1C[C@H](N)[C@H](O)[C@H](C)O1.Cl [5-Iminodaunorubicin (hydrochloride)]
1-D Distance.npi [1]: 90.1534
1-D Distance [2]: 802
Raw data [w Enyzm] (sheet HTS hits): 2925
Raw data [w/o Enzym] (sheet HTS hits): 3727

COc1cccc2c1C(=N)c1c(O)c3c(c(O)c1C2=O)C[C@@](O)(C(C)=O)C[C@@H]3O[C@H]1C[C@H](N)[C@H](O)[C@H](C)O1 [5-Iminodaunorubicin]
1-D Distance [3]: 1374
1-D Distance.npi [4]: 80.0753
Raw data [w Enyzm] (HTS hits): 2360
Raw data [w/o Enzym] (HTS hits): 3734

CN(C)CCSSCCNC(=O)C1CCN(C(=O)CSc2ccc(Cl)cc2)CC1.O=C(O)C(F)(F)F [6H05 (TFA)]
1-D Distance [3]: 1774
1-D Distance.npi [4]: 75.4127
Raw data [w Enyzm] (HTS hits): 8996
Raw data [w/o Enzym] (HTS hits): 10770

CC(C)=CC[C@H](O)C1=CC(=O)c2c(O)ccc(O)c2C1=O [(-)-Alkannin]
1-D Distance.npi [5]: 70.9637
1-D Distance [6]: 1812
Raw data [w Enyzm] (HTS hits): 3885

Cc1ncsc1-c1ccc(CNC(=O)[C@@H]2C[C@@H](O)CN2C(=O)[C@@H](NC(=O)CCN)C(C)(C)C)cc1.Cl.Cl [(S,R,S)-AHPC-C2-NH2 (dihydrochloride)]
1-D Distance.npi [1]: 76.891
1-D Distance [2]: 1672
Raw data [w Enyzm] (sheet HTS hits): 9239
Raw data [w/o Enzym] (sheet HTS hits): 10911

CCCCCCCCCCCCCCCC(=O)NCCCC[C@@H](N)C(=O)NCCCNCCCCNCCCN.Cl.Cl.Cl.Cl [AMXT-1501 tetrahydrochloride]
1-D Distance [3]: 45
1-D Distance.npi [7]: 103.958
Raw data [w Enyzm] (HTS hits): 4942
Raw data [w/o Enzym] (HTS hits): 4897

O=C(O)c1ccc(-c2ccc(N(c3ccc(-c4ccc(C(=O)O)cc4)cc3)c3ccc(-c4ccc(C(=O)O)cc4)cc3)cc2)cc1 [Antibacterial agent 18]
1-D Distance.npi [5]: 80.2581
1-D Distance [6]: 1227
Raw data [w Enyzm] (HTS hits): 12110
Raw data [w/o Enzym] (HTS hits): 13337

CN1CCC=C(C(=O)O)C1 [Arecaidine]
1-D Distance [3]: 1949
1-D Distance.npi [4]: 71.9903
Raw data [w Enyzm] (HTS hits): 8786
Raw data [w/o Enzym] (HTS hits): 10735

C=C1C(=O)O[C@@H]2[C@H]3C(C)=CC[C@@]34O[C@@]4(C)CC[C@@H]12 [Arglabin]
1-D Distance [3]: 1673
Raw data [w Enyzm] (HTS hits): 8885
Raw data [w/o Enzym] (HTS hits): 10558

CC(=O)Nc1cc(Oc2ccc3c(C(=O)Nc4ccc(CN5CCN(C)CC5)c(C(F)(F)F)c4)cccc3c2)ncn1 [BGG463]
1-D Distance [3]: 797
1-D Distance.npi [7]: 93.5609
Raw data [w Enyzm] (HTS hits): 8276
Raw data [w/o Enzym] (HTS hits): 9073

C[n+]1ccc(/C=C/c2ccc3c(c2)c2cc(/C=C/c4cc[n+](C)cc4)ccc2n3CCOCCOCCOCC[N+]2(C)CCCCC2)cc1.[I-].[I-].[I-] [BMVC-8C3O]
1-D Distance [3]: 496
1-D Distance.npi [7]: 99.5333
Raw data [w Enyzm] (HTS hits): 3841
Raw data [w/o Enzym] (HTS hits): 4337

O=c1[nH]c(=O)c2ccccc2[nH]1 [Benzoyleneurea]
1-D Distance.npi [5]: 70.2932
1-D Distance [6]: 1891
Raw data [w Enyzm] (HTS hits): 9137
Raw data [w/o Enzym] (HTS hits): 11028

O=C(O)CCCN1CCC(O[C@@H](c2ccc(Cl)cc2)c2ccccn2)CC1.O=S(=O)(O)c1ccccc1 [Bepotastine (besilate)]
1-D Distance.npi [1]: 70.3956
1-D Distance [2]: 1900
Raw data [w Enyzm] (sheet HTS hits): 8762
Raw data [w/o Enzym] (sheet HTS hits): 10662

C#CCOCCOCCOCCOCC#C [Bis-propargyl-PEG3]
1-D Distance.npi [1]: 78.8376
1-D Distance [2]: 1567
Raw data [w Enyzm] (sheet HTS hits): 9208
Raw data [w/o Enzym] (sheet HTS hits): 10775

CN(C)c1ccc(Nc2c3ccc(NC(=O)CCN4CCCC4)cc3nc3cc(NC(=O)CCN4CCCC4)ccc23)cc1.Cl.Cl.Cl [Braco-19 (trihydrochloride)]
1-D Distance [3]: 99
1-D Distance.npi [4]: 102.921
Raw data [w Enyzm] (HTS hits): 2490
Raw data [w/o Enzym] (HTS hits): 2391

CC(=O)Nc1ccc(S(=O)(=O)[O-])c2cc(S(=O)(=O)[O-])c(N=Nc3ccc(N=Nc4ccc(S(=O)(=O)[O-])cc4)c4ccc(S(=O)(=O)[O-])cc34)c(O)c12.[Na+].[Na+].[Na+].[Na+] [Brilliant Black BN]
1-D Distance.npi [5]: 98.2105
1-D Distance [6]: 272
Raw data [w Enyzm] (HTS hits): 1620
Raw data [w/o Enzym] (HTS hits): 1348

CC(C)(C)OC(=O)CCOCCBr [Bromo-PEG1-C2-Boc]
1-D Distance.npi [1]: 72.9978
1-D Distance [2]: 1882
Raw data [w Enyzm] (sheet HTS hits): 9154
Raw data [w/o Enzym] (sheet HTS hits): 11036

CC(/C=C/C=C(\C)C(=O)O[C@@H]1O[C@H](CO[C@@H]2O[C@H](CO)[C@@H](O)[C@H](O)[C@H]2O)[C@@H](O)[C@H](O)[C@H]1O)=C\C=C\C=C(C)\C=C\C=C(/C)C(=O)O[C@@H]1O[C@H](CO[C@@H]2O[C@H](CO)[C@@H](O)[C@H](O)[C@H]2O)[C@@H](O)[C@H](O)[C@H]1O [Crocin]
1-D Distance [6]: 1393
Raw data [w Enyzm] (HTS hits): 2370
Raw data [w/o Enzym] (HTS hits): 3763

COc1cccc2c1C(=O)c1c(O)c3c(c(O)c1C2=O)C[C@@](O)(C(C)=O)C[C@@H]3O[C@H]1C[C@H](NC(=O)OCc2ccc(O[C@@H]3O[C@H](CO)[C@H](O)[C@H](O)[C@H]3O)c([N+](=O)[O-])c2)[C@H](O)[C@H](C)O1 [Daun02]
1-D Distance [3]: 1434
1-D Distance.npi [7]: 83.3585
Raw data [w Enyzm] (HTS hits): 2111
Raw data [w/o Enzym] (HTS hits): 3545

Cc1cccc2c3c(ccc12)C(=O)C1=C(OCC1C)C3=O (stereo not drawn) [Dihydroisotanshinone I]
1-D Distance.npi [1]: 72.3395
1-D Distance [2]: 1938
Raw data [w Enyzm] (sheet HTS hits): 11164
Raw data [w/o Enzym] (sheet HTS hits): 13102

CC1=NN(c2ccc(C)c(C)c2)C(=O)/C1=N\Nc1cccc(-c2cccc(C(=O)O)c2)c1O.NCCO.NCCO [Eltrombopag (Olamine)]
1-D Distance.npi [1]: 92.4928
1-D Distance [2]: 680
Raw data [w Enyzm] (sheet HTS hits): 3683
Raw data [w/o Enzym] (sheet HTS hits): 4363

COc1cccc2c1C(=O)c1c(O)c3c(c(O)c1C2=O)C[C@@](O)(C(=O)CO)C[C@@H]3O[C@H]1C[C@H](N)[C@@H](O)[C@H](C)O1.Cl [Epirubicin (hydrochloride)]
1-D Distance.npi [5]: 99.0682
1-D Distance [6]: 316
Raw data [w Enyzm] (HTS hits): 1246

CC(=O)O[C@H]1C[C@@]2(C)[C@@H](C[C@@H](O)[C@H]3[C@@]4(C)CC[C@@H](O)[C@@H](C)[C@@H]4CC[C@@]32C)/C1=C(\CCC=C(C)C)C(=O)[O-].[Na+] [Fusidic acid (sodium salt)]
1-D Distance.npi [1]: 75.4657
1-D Distance [2]: 1636
Raw data [w Enyzm] (sheet HTS hits): 9299
Raw data [w/o Enzym] (sheet HTS hits): 10935

C=CC1=C(C)c2cc3[n-]c(cc4nc(cc5[n-]c(cc1n2)c(C)c5C=C)C(C)=C4CCC(=O)O)c(CCC(=O)O)c3C.[Cl-].[Fe+3] [Hemin]
1-D Distance.npi [1]: 76.0753
1-D Distance [2]: 1716
Raw data [w Enyzm] (sheet HTS hits): 4406
Raw data [w/o Enzym] (sheet HTS hits): 6122

C/C1=C2/[N-]C([C@H](CC(N)=O)[C@@]2(C)CCC(=O)NC[C@@H](C)OP(=O)([O-])O[C@H]2[C@@H](O)[C@@H](n3cnc4cc(C)c(C)cc43)O[C@@H]2CO)[C@]2(C)N=C(/C(C)=C3N=C(/C=C4N=C1[C@@H](CCC(N)=O)C\4(C)C)[C@@H](CCC(N)=O)[C@]\3(C)CC(N)=O)[C@@H](CCC(N)=O)[C@]2(C)CC(N)=O.CC(=O)[O-].[Co+3] [Hydroxocobalamin (acetate)]
1-D Distance.npi [5]: 78.9236
1-D Distance [6]: 1452
Raw data [w Enyzm] (HTS hits): 4827
Raw data [w/o Enzym] (HTS hits): 6279

C/C1=C2N=C(/C=C3N=C(/C(C)=C4\[N-]C(C(CC(N)=O)C4(C)CCC(=O)NCC(C)OP(=O)([O-])OC4C(CO)OC(n5cnc6cc(C)c(C)cc65)C4O)C4(C)N=C1C(CCC(N)=O)C4(C)CC(N)=O)C(CCC(N)=O)C\3(C)C)C(CCC(N)=O)C/2(C)CC(N)=O.Cl.[Co+3].[OH-] (stereo not drawn) [Hydroxocobalamin (monohydrochloride)]
1-D Distance.npi [1]: 101.9
1-D Distance [2]: 179
Raw data [w Enyzm] (sheet HTS hits): 5221
Raw data [w/o Enzym] (sheet HTS hits): 5042

COc1c2c3c4c(c(OC)c(=O)c5c(O)cc(OC)c(c6c(OC)cc(O)c(c1=O)c63)c54)[C@@H](C(C)=O)[C@@](C)(O)C2 [Hypocrellin A]
1-D Distance [3]: 1179
Raw data [w Enyzm] (HTS hits): 1866
Raw data [w/o Enzym] (HTS hits): 3045

CC(=O)[C@]1(O)Cc2c(O)c3c(c(O)c2[C@@H](O[C@H]2C[C@H](N)[C@H](O)[C@H](C)O2)C1)C(=O)c1ccccc1C3=O.Cl [Idarubicin (hydrochloride)]
1-D Distance.npi [5]: 74.8199
1-D Distance [6]: 1722
Raw data [w Enyzm] (HTS hits): 5823
Raw data [w/o Enzym] (HTS hits): 7545

CC(C)c1nc2c([nH]1)-c1ccccc1C(=O)C2=O [KL1333]
1-D Distance [3]: 578
1-D Distance.npi [7]: 96.7085
Raw data [w Enyzm] (HTS hits): 12041
Raw data [w/o Enzym] (HTS hits): 12619

N[C@@H](CS)C(=O)O [L-Cysteine]
1-D Distance [3]: 1124
Raw data [w Enyzm] (HTS hits): 9158
Raw data [w/o Enzym] (HTS hits): 10282

N#Cc1cc(NS(=O)(=O)c2ccc(N)cc2)ccc1Oc1ccc(Cl)c(C(F)(F)F)c1 [Lp-PLA2-IN-3]
1-D Distance.npi [5]: 92.9896
1-D Distance [6]: 555
Raw data [w Enyzm] (HTS hits): 9448

CN(C)CCOC(=O)COc1ccc(Cl)cc1.Cl [Meclofenoxate (hydrochloride)]
1-D Distance.npi [5]: 72.0073
1-D Distance [6]: 1832
Raw data [w Enyzm] (HTS hits): 9480
Raw data [w/o Enzym] (HTS hits): 11312

COS(=O)(=O)[O-].COc1cccc2c1nc1ccccc1[n+]2C [Methoxy-PMS]
1-D Distance [3]: 2097
1-D Distance.npi [7]: 71.83
Raw data [w Enyzm] (HTS hits): 4514
Raw data [w/o Enzym] (HTS hits): 6611

COC(=O)Cc1ccc(C(C)(C)C)cc1 [Methyl p-tert-butylphenylacetate]
1-D Distance [3]: 2067
1-D Distance.npi [4]: 70.3748
Raw data [w Enyzm] (HTS hits): 8807
Raw data [w/o Enzym] (HTS hits): 10874
